Laboratory results: patent US20210246144A1, “A SET OF MITOCHONDRIA-TARGETED COMPOUNDS” (MITOTECH S.A., priority 2017, published 2021)

Legend:
[1] = system: isolated mitochondria or live cultures of human cells; details: cited from earlier work
[2] = system: isolated mitochondria; details: cited from earlier work
[3] = relative to the antioxidant concentrations; cited from earlier work
[4] = fluorescent uncoupler activity
Procedure: (§1) Dibromoalkanes (60, 61) were heated with (triphenyl)phosphine in benzene at 80° C., and the obtained bromoalkyl(triphenyl)phosphonium bromides (62, 63) were reacted with fluorescein in the presence of sodium carbonate. As a result, bromides of {4-[2-(6-hydroxy-3-oxo-3H-xanthen-9-yl)benzoyloxy]butyl}(triphenyl)phosphonium (64) and {10-[2-(6-hydroxy-3-oxo-3H-xanthen-9-yl)benzoyloxy]decyl}(triphenyl)phosphonium (65).

[5] = neuroprotective and nephroprotective properties
Procedure: as §1

[6] = system: mitochondrial membrane potential; assay: mitochondrial uncoupling (protonophore), decrease of mitochondrial membrane potential; details: causes decrease in mitochondrial membrane potential and reduction of ROS production by mitochondria

COc1cc2c(cc1OC)-c1c(CC(=O)OCCCCCCCCCC3=CC(=O)C(C)=C(C)C3=O)c3ccc(OC)c(OC)c3c[n+]1CC2 [SkQPalm, 13-(2-{[9-(4,5-dimethyl-3,6-dioxocyclohexa-1,4-dien-1-yl)nonyl]oxy}-2-oxoethyl)-3,4,10,11-tetramethoxy-7,8-dihydro-6λ^5-azatetraphen-6-ylium]
accumulation in isolated mitochondria or live human cells [1]: accumulate in isolated mitochondria or live cultures of human cells
inhibition of lipid peroxidation [2]: inhibit lipid peroxidation in isolated mitochondria in nanomolar concentrations
prooxidant effect [3]: manifested at significantly higher concentrations

{10-[2-(6-hydroxy-3-oxo-3H-xanthen-9-yl)benzoyloxy]decyl}(triphenyl)phosphonium [Compound 65]
uncoupler activity [4]: fluorescent uncouplers
neuroprotective and nephroprotective properties [5]: neuroprotective and nephroprotective properties

CCCCCCCCCCOC(=O)c1ccccc1-c1c2cc(C)/c(=N/CC)cc-2oc2cc(NCC)c(C)cc12 [Compound 28, decyl 2-[(3E)-6-(ethylamino)-3-(ethylimino)-2,7-dimethyl-3H-xanthen-9-yl]benzoate]
mitochondrial uncoupling (protonophore) activity [6]: soft cationic mitochondrial uncouplers (protonophores)

COc1ccc2c(CC(=O)OCCCCCCCCCC3=CC(=O)C(C)=C(C)C3=O)c3[n+](cc2c1OC)CCc1cc2c(cc1-3)OCO2 [SkQBerb, 21-(2-{[9-(4,5-dimethyl-3,6-dioxocyclohexa-1,4-dien-1-yl)nonyl]oxy}-2-oxoethyl)-16,17-dimethoxy-5,7-dioxa-13λ^5-azapentacyclo[11.8.0.0^21.0.0^4.8.0^15.20]henicosa-1(21),2,4(8),9,13,15(20),16,18-octaen-13-ylium]
accumulation in isolated mitochondria or live human cells [1]: accumulate in isolated mitochondria or live cultures of human cells
inhibition of lipid peroxidation [2]: inhibit lipid peroxidation in isolated mitochondria in nanomolar concentrations
prooxidant effect [3]: manifested at significantly higher concentrations

CC/N=c1/cc2oc3cc(NCC)c(C)cc3c(-c3ccccc3C(=O)OCCCCCCCCCCC3=CC(=O)C(C)=C(C)C3=O)c-2cc1C.Cl [SkQR1]
mitochondrial uncoupling (protonophore) activity [6]: soft cationic mitochondrial uncouplers (protonophores)

{4-[2-(6-hydroxy-3-oxo-3H-xanthen-9-yl)benzoyloxy]butyl}(triphenyl)phosphonium [Compound 64]
uncoupler activity [4]: fluorescent uncouplers
neuroprotective and nephroprotective properties [5]: neuroprotective and nephroprotective properties

CCCCCCCCCCCCOC(=O)c1ccccc1-c1c2cc(C)/c(=N/CC)cc-2oc2cc(NCC)c(C)cc12 [Compound 29, dodecyl 2-[(3E)-6-(ethylamino)-3-(ethylimino)-2,7-dimethyl-3H-xanthen-9-yl]benzoate]
mitochondrial uncoupling (protonophore) activity [6]: soft cationic mitochondrial uncouplers (protonophores)
